Laboratory results: US6884882B1, “2′-deoxyuridine derivatives and hydrogels formed therewith” (Postech Foundation, priority 2004, dated 2005)
“Also recorded” adds a separate entry of the source.

How the values were obtained:
Type in all cases: physicochemical
[1] = Gelation test (stable-to-inversion-of-the-container method) in water; conditions: for State: 2 wt % in water, dissolved by sonication and heating, cooled at room temperature for 20 minutes, vessel inverted; for Minimum gel concentration: minimum concentration at which a gel was formed in water; for gelation ability: in water, judged from Table 1
Protocol: In order to determine the extent of gelation of the 2′-deoxyuridine derivative of the present invention, the “stable-to-inversion-of-the-container” method was performed (see F. M. Menger and K. L Caran., J. Am. Chem. Soc., 122, 11679, 2000).
Each of 2′-deoxyuridine derivatives prepared in Example 1 was mixed with water in an amount corresponding to a concentration of 2 wt %, completely dissolved by sonication and heating, and then cooled at room temperature for 20 minutes to induce the formation of a gel. Then, the vessel containing the gel was inverted to see whether or not the content poured out.
Further, the minimum concentration at which a gel was formed (hereinafter, minimum gel concentration) was measured for each of the 2′-deoxyuridine derivatives.

[2] = Observation of inner structures of gels by Scanning Electron Microscopy (SEM); conditions: for gel structure in SEM image: gel prepared by the method of Example 2, lyophilized, platinum coated
Protocol: The aggregation mode of the gel formed with the 2′-deoxyurindine derivative was observed by Scanning Electron Microscopy (SEM). Gels were prepared using the 2′-deoxyuridine derivatives prepared in 1-4), 1-7), 1-9) and 1-10) by the method of Example 2. Each of the gels was heated to obtain a sol, and a small amount of the sol was converted to a gel cake, which was lyophilized under a vacuum at the liquid nitrogen temperature to remove the solvent, coated with platinum, and examined by SEM.

[3] = Analysis of thermal stability of hydrogel by differential scanning calorimetry; conditions: DSC, 30 to 220° C., FIG. 3
Protocol: In order to examine the thermal stability of the 2′-deoxyuridine derivative of the present invention, 1 to 4 mg of the derivative prepared in 1-9) was shaped in the form of a pellet, and differential scanning calorimetry was performed therewith at a temperature ranging from 30 to 220° C.

State [1]	Minimum gel concentration [1]	gelation ability [1]	gel structure in SEM image [2]	melting point peak of the gel phase [3]	melting point peak of the solid phase [3]	SMILES	gel structure in SEM image on lowering the concentration ([2]; concentration lowered from 2 to 0.25 wt %, FIG. 2)
Unstable white opaque gel	1 wt %	–	–	–	–	Cc1cccc(Cn2cc(-c3cn([C@H]4C[C@H](O)[C@@H](CO)O4)c(=O)[nH]c3=O)nn2)c1 [1-6), 2′-deoxy-5-[1-((m-methylphenyl)methyl)-1H-1,2,3-triazol-4-yl]-uridine]	–
White opaque gel	0.8 wt %	good gelation ability	lamellar structure	–	–	CCCCc1ccc(Cn2cc(-c3cn([C@H]4C[C@H](O)[C@@H](CO)O4)c(=O)[nH]c3=O)nn2)cc1 [1-10), 2′-deoxy-5-[1-((p-butylphenyl)methyl)-1H-1,2,3-triazol-4-yl]-uridine]	–
Unstable white opaque gel	3 wt %	–	–	–	–	Cc1ccccc1Cn1cc(-c2cn([C@H]3C[C@H](O)[C@@H](CO)O3)c(=O)[nH]c2=O)nn1 [1-5), 2′-deoxy-5-[1-((o-methylphenyl)methyl)-1H-1,2,3-triazol-4-yl]-uridine]	–
Unstable white opaque gel	2 wt %	–	–	–	–	CCc1ccccc1Cn1cc(-c2cn([C@H]3C[C@H](O)[C@@H](CO)O3)c(=O)[nH]c2=O)nn1 [1-8), 2′-deoxy-5-[1-((o-ethylphenyl)methyl)-1H-1,2,3-triazol-4-yl]-uridine]	–
White opaque gel	0.3 wt %	–	lamellar structure	–	–	O=c1[nH]c(=O)n([C@H]2C[C@H](O)[C@@H](CO)O2)cc1-c1cn(Cc2ccccc2)nn1 [1-4), 2′-deoxy-5-[1-(phenylmethyl)-1H-1,2,3-triazol-4-yl]-uridine]	–
White opaque gel	0.6 wt %	good gelation ability	lamellar structure	–	–	Cc1ccc(Cn2cc(-c3cn([C@H]4C[C@H](O)[C@@H](CO)O4)c(=O)[nH]c3=O)nn2)cc1 [1-7), 2′-deoxy-5-[1-((p-methylphenyl)methyl)-1H-1,2,3-triazol-4-yl]-uridine]	–

SMILES	State [1]	Minimum gel concentration [1]	gelation ability [1]	gel structure in SEM image [2]	melting point peak of the gel phase [3]	melting point peak of the solid phase [3]	gel structure in SEM image on lowering the concentration ([2]; concentration lowered from 2 to 0.25 wt %, FIG. 2)
CCc1ccc(Cn2cc(-c3cn([C@H]4C[C@H](O)[C@@H](CO)O4)c(=O)[nH]c3=O)nn2)cc1 [1-9), 2′-deoxy-5-[1-((p-ethylphenyl)methyl)-1H-1,2,3-triazol-4-yl]-uridine]	White opaque gel	0.2 wt %	good gelation ability; also recorded: best gelation ability	fiber structure	201 °C	200 °C	looser fiber structure having a larger void volume
